Measured values published in patent US11325892B2, “Compounds and methods for treating cancer” (Mayo Foundation for Medical Education and Research, priority 2014, dated 2022).

Key:
[1] = tested on: ATF6-UPRE luciferase reporter in A498 and ACHN cells; experiment: ATF6-UPRE luciferase reporter assay; assay type: cell-based; details: EC50 dose
Protocol: A498 and ACHN cells were transiently transfected with p5×ATF6-GL3 UPR luciferase reporter (Addgene plasmid#11976) and pRL-CMV-renilla (Promega) using Lipofectamine 2000 (Invitrogen). Cells were treated as indicated for 24H, prior to collection and analysis using Promega Dual Luciferase assay kit per manufacturer's specifications. Luciferase activity was measured using Veritas Luminometer (Promega); and results are reported as relative luminescence.
(§1) Activating transcription factor 6 (ATF6) is a key regulator of the unfolded protein response (UPR) that recognizes unfolded protein response elements (UPRE) in the promoter regions of several key mediators of the ER stress response, initiating their transcription (Wang Y, Shen J, Arenzana N, Tirasophon W, Kaufman R J, Prywes R. Activation of ATF6 and an ATF6 DNA binding site by the endoplasmic reticulum stress response. J Biol Chem. Sep. 1, 2000; 275(35):27013-27020). A498 and ACHN transfected with an ATF6-UPRE luciferase reporter were treated with the EC50 doses of ChemBL375265, SSI-1, SSI-4, SSI-3, and SSI-2 with or without OA supplementation were evaluated in order to determine whether the identified compounds could recapitulate activation of the UPR. […] Upregulation of the UPR markers BiP (heat shock 70 kDa protein, GRP78) and CHOP (damage inducible transcript 3, DDIT3) was evaluated by Western blot in A498 and ACHN cells treated with the EC50 doses of ChemBL375265, SSI-1, SSI-4, SSI-3, and SSI-2 with or without OA supplementation.

[2] = tested on: BiP and CHOP expression in A498 and ACHN cells; experiment: Western blot for UPR markers BiP and CHOP; assay type: cell-based; details: EC50 dose; both cell lines; blocked with concomitant OA treatment
Protocol: (§2) Protein extraction and western blot analysis was performed as previously described (Copland J A, Marlow L A, Kurakata S, et al. Novel high-affinity PPARgamma agonist alone and in combination with paclitaxel inhibits human anaplastic thyroid carcinoma tumor growth via p21WAF1/CIP1. Oncogene. Apr 13 2006; 25(16):2304-2317). Primary antibodies included SCD1 (Sigma-Aldrich, #HPA012107), BiP (Cell Signaling, #3183), CHOP (Cell Signaling, #2895), sXBP1(Santa Cruz Biotechnology, #sc-7160), PARP(Cell Signaling, #9542), and β-actin (Sigma-Aldrich, #A5441).
as §1

[3] = tested on: A498, ACHN, and Caki1 cell lines; experiment: Oleic acid (OA) rescue assay of cell proliferation in ccRCC cells; assay type: cell-based; details: EC50 dose of compound with OA (5 μg/μL); all three cell lines
Protocol: (§3) Cells were seeded at 5,000 cells/well in clear-bottom 96-well plates in triplicate in Maintenance Media. Drug treatment was applied at a concentration of 1:1000 in reduced serum (3%) Maintenance Media. After 72 hours, cells were washed with PBS, and stored at −80° C. prior to analysis using CyQuant® Proliferation Analysis Kit (Invitrogen) as per manufacturers' protocol for relative fluorescence units. Alternatively, cells were plated 2×10^5/well in 12-well plates (Midwest Scientific) in triplicate prior to drug treatment. After 120 hour treatment, cell number was established using a Coulter Particle Counter (Beckman). Or, cells were plated (0.5 or 1×10^5/well) in 24-well plates (Midwest Scientific), 3×. After 72 hour treatment, cell number established using Coulter Particle Counter (Beckman). Oleic acid-albumin (Sigma Aldrich) was added to media at 5 μM, and was applied adjuvant to drug treatment. Drug stocks were prepared in DMSO (Sigma) at 1000×. EC50 dosing per cell line was calculated using CalcuSyn® analytical software.
A498, ACHN, and Caki1 cell lines were treated with the EC50 dose of each MF-438, ChemBL375265, SSI-1, SSI-4, SSI-3, and SSI-2 with or without concomitant application of OA (5 μg/μL). […] Representative images of A498 cell morphology and density treated with each compound +/−OA are shown in (FIG. 2B).

ATC cells = experiment: Proliferative dose response of thyroid cells; assay type: cell-based; details: THJ29T, THJ16T, and KTC2; 72H
Protocol: as §3
The efficacy of pharmacologic inhibition of this enzyme on tumor cell proliferation after a 72H treatment was determined, using A939572-a commercially available small molecule SCD1 inhibitor (Xin Z, Zhao H, Serby M D, Liu B, Liu M, Szczepankiewicz B G, Nelson L T, Smith H T, Suhar T S, Janis R S, Cao N, Camp H S, Collins C A, Sham H L, Surowy T K, Liu G. Discovery of piperidine-aryl urea-based stearoyl-CoA desaturase 1 inhibitors. Bioorg Med Chem Lett. 2008; 18(15):4298-302). […] Despite conspicuous SCD1 expression in 4 of the 5 FTC cells tested, no response to A939572 was observed (FIG. 10D).
THJ29T, THJ16T, and KTC2 were treated with carfilzomib (FIG. 12A) or bortezomib for 72H in order to establish EC50 values. […] Anti-proliferative drug synergy was evaluated in THJ29T and THJ16T treated with either A939572 or MF-438 in combination with either bortezomib or carfilzomib for 48H. Synergy was assessed using CalcuSyn analytical software, which determines the combination index (CI) based on the Chou-Talalay method where CI values >1 represent an antagonistic effect and values <1 represent synergy, and lower values signify enhanced synergy (Chou T C, Talalay P. Analysis of Combined Drug Effects—a New Look at a Very Old Problem. Trends in Pharmacological Sciences. 1983; 4(11):450-4).

[4] = tested on: THJ16T ATC cell xenograft; experiment: THJ16T xenograft model; assay type: in vivo, female athymic nu/nu mice
Protocol: Formalin-fixed, paraffin-embedded subject tissues were mounted on slides, blocked with Diluent (DakoCytomation) for 30 min, and then probed for SCD (Sigma-Aldrich, #HPA012107). IHC scoring was performed as previously described (von Roemeling C A, Marlow L A, Wei J J, et al. Stearoyl-CoA desaturase 1 is a novel molecular therapeutic target for clear cell renal cell carcinoma. Clin Cancer Res. May 1 2013; 19(9):2368-2380). Cases where insufficient tumor tissue presented were excluded. 20× images were obtained using Scanscope XT and Imagescope software.
1×10^6 THJ16T ATC cells were subcutaneously injected in female athymic nu/nu mice (Harlan Laboratories). Treatment was initiated once tumor volumes reached 50-100 mm^3. MF-438 was suspended in 0.5% carboxymethyl-cellulose containing strawberry drink flavoring(0.1 g/mL) in sterilized H2O at 25 mg/kg in a 100 μl dose, and administered via oral gavage once daily. Carfilzomib was solubilized in DMSO (4% of FC), suspended in 100% corn oil at 4 mg/kg per 50 uL dose and administered via intraperitoneal injection twice weekly on consecutive days. Tumor volume(0.5236[L*W*H]) and body weight were measured 2×/week. N=10 mice/group.
MF-438 was tested in combination with carfilzomib in vivo in a THJ16T xenograft model. […] J Clin Endocrinol Metab. 2010; 95(12):5338-47). […] Saline was administered as necessary. These adverse events resolved 24-48 hours after the second administration of carfilzomib. […] However, no other significant adverse events were observed. […] IHC analysis of tumors resected from each treatment group was performed.

[5] = tested on: PARP cleavage and CHOP expression in THJ29T and THJ16T; experiment: Western blot for PARP cleavage and CHOP expression, combinatorial therapy; assay type: cell-based; details: EC50 doses, 48H
Protocol: as §2
THJ29T and THJ16T treated for 48H with EC50 doses of either A939572 or MF-438 in combination with either carfilzomib or bortezomib were probed for PARP cleavage and CHOP expression, both markers indicative of apoptosis (FIGS. 14A-B, 15A-B). […] Cell death was additionally examined via flow cytometry using propidium iodide staining. THJ29T and THJ16T were treated for 48H with EC50 doses of either A939572 or MF-438 in combination with either carfilzomib or bortezomib prior to staining and analysis.

kidney cancer cells = experiment: Combination with mTor inhibitor temsirolimus, cell proliferation; assay type: cell-based; details: different concentrations with 0, 0.1, 1, and 10 nM temsirolimus
[6] = tested on: HK2, a transformed renal epithelial cell line; experiment: High-throughput proliferative screen, non-cancerous cells; assay type: cell-based
Protocol: as §3
In order to identify potential SCD1 inhibitors, a high-throughput proliferative-based screening method was used, with four ccRCC cell lines including A498, ACHN, Caki1, and Caki2. The SCD1 inhibitor MF-438 was included as a positive control. Known compounds ChemBL375265 (Liu G, Lynch J K, Freeman J, et al. Discovery of potent, selective, orally bioavailable stearoyl-CoA desaturase 1 inhibitors. Journal of medicinal chemistry. Jun. 28, 2007; 50(13): 3086-3100) (SetA.100) and SAR707 (Voss M D, Zoller G, Matter H, et al. Discovery and pharmacological characterization of SAR707 as novel and selective small molecule inhibitor of stearoyl-CoA desaturase (SCD1). European journal of pharmacology. May 5, 2013; 707(1-3): 140-146) (TC03.100) were included as single-blinded positive controls, and are indicated with an asterisk (*). […]

SCD1 = target: T1, SCD1 (Homo sapiens, UniProt O00767); details: known inhibitors; cited from earlier work
T1 sequence (O00767 1-359): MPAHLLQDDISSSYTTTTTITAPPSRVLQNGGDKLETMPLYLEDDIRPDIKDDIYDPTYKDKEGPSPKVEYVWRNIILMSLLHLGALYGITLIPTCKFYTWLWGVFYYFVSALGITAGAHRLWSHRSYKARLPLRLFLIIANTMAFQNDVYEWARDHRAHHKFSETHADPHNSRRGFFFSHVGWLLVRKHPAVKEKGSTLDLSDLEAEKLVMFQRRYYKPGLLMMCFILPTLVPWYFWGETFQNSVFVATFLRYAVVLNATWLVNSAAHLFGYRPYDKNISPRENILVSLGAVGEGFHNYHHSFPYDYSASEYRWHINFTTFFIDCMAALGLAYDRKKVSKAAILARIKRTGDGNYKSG

[7] = 24H, both cell lines A498 and ACHN, completely blocked with OA

Question: For CNC(=O)c1ccccc1OCC(=O)N1CCN(C(=O)c2ccccc2C(F)(F)F)CC1 [SSI-1, N-Methyl-2-(2-oxo-2-{4-[2-(trifluoromethyl)benzoyl]piperazin-1-yl}ethoxy)benzamide], which luciferase activity [1, 7] is on record?
Answer: significant upregulation of luciferase activity

Question: And the “BiP and CHOP expression” value [2]?
Answer: strongly induced both BiP and CHOP expression

Question: What about the “rescue of cell proliferation with OA” value [3] of the same compound?
Answer: Near total rescue of cell proliferation

Question: With CC(C)C[C@H](NC(=O)[C@H](Cc1ccccc1)NC(=O)c1cnccn1)B(O)O [bortezomib] as the compound, how does the EC50 (ATC cells) read?
Answer: low nanomolar dose range

Question: Which results are given for O=C(NCc1ccnc(OCc2ccccc2)c1)N1CCN(C(=O)c2ccccc2C(F)(F)F)CC1 [SSI-3]?
Answer: luciferase activity ([1]; ACHN cells): induced reversible luciferase activity; BiP and CHOP expression [2]: strongly induced both BiP and CHOP expression; rescue of cell proliferation with OA [3]: Near total rescue of cell proliferation

Question: For CC(C)C[C@H](NC(=O)[C@H](CCc1ccccc1)NC(=O)CN1CCOCC1)C(=O)N[C@@H](Cc1ccccc1)C(=O)N[C@@H](CC(C)C)C(=O)[C@@]1(C)CO1 [carfilzomib], which EC50 (ATC cells) is on record?
Answer: low nanomolar dose range

Question: What about the “reduction in mean tumor burden as compared to the placebo control” value ([4]; MF-438 25 mg/kg oral once daily, carfilzomib 4 mg/kg i.p. twice weekly) of the same compound?
Answer: 21%

Question: And the “tumor response / mean tumor volume course” value ([4]; THJ16T xenograft)?
Answer: temporarily plateau

Question: What about the adverse events ([4]; mice bearing THJ16T xenograft) of the same compound?
Answer: Dehydration and acute inflammation

Question: What about the “survivin expression (IHC)” value ([4]; mouse, in vivo) of the same compound?
Answer: induced survivin expression

Question: And the “CD31 (IHC), tumor vascularization” value ([4]; versus placebo control)?
Answer: trend toward decreased CD31

Question: What about the “ki67 staining (IHC of resected tumors)” value ([4]; versus placebo control) of the same compound?
Answer: trend of decreased ki67 staining

Question: And the “cleaved caspase-3 (IHC)” value ([4]; versus placebo control, only the combination group achieved statistical significance)?
Answer: increased cleaved caspase-3

Question: And the “HERPUD1 (IHC), marker for ER stress” value ([4]; versus placebo control, statistically significant combinatorial values)?
Answer: Increased HERPUD1

Question: And the “PARP cleavage as compared to DMSO control” value [5]?
Answer: significant PARP cleavage

Question: What does the source list for O=C(Nc1ccc(OCc2ccccc2)nc1)N1CCN(C(=O)c2ccccc2C(F)(F)F)CC1 [SSI-2, 2-(benzyloxy)-5-{[hydroxy({4-[2-(trifluoromethyl)benzoyl]piperazin-1-yl})methyl]amino}-1,2-dihydropyridin-2-ylium-1-ide]?
Answer: luciferase activity [1, 7]: significant upregulation of luciferase activity; kidney cancer cell proliferation (kidney cancer cells): reduced kidney cancer cell proliferation; BiP and CHOP expression [2]: strongly induced both BiP and CHOP expression; reduction in cell proliferation [6]: approximately 20%; rescue of cell proliferation with OA [3]: Near total rescue of cell proliferation

Question: Which results are given for CNC(=O)c1ccc(N2CCC(Oc3ccccc3Cl)CC2)nn1 [ChemBL375265]?
Answer: IC50 (SCD1): 0.4 µM; luciferase activity [1, 7]: significant upregulation of luciferase activity; BiP and CHOP expression [2]: strongly induced both BiP and CHOP expression; rescue of cell proliferation with OA [3]: Near total rescue of cell proliferation
